Data: patent US20250332101A1, “Composition” (priority 2018, published 2025)
“Also recorded” adds a separate entry of the source. Values belong to the compound of their own block, whether it stands above or below them.

Experiments:
[1] = tested on: RGC in OHT Dark Agouti (DA) rats; format: in vivo; conditions: topical eye drops from two days prior to induction, three weeks, versus OHT only
[2] = topical formulation, Sigurdsson et al; cited from earlier work
[3] = tested on: New Zealand albino male rabbits (eye); conditions: known; rabbits and humans; cited from earlier work
Aqueous solubility = format: physicochemical
HCE-S tight junctions = test: HCE-S transwell barrier: transepithelial resistance (TER); format: cell-based, human; conditions: 2 h exposure, up to 300 μM 3-OH-C12 HSL
Experimental: (§1) HCE-S cells (Immortalized Human Corneal Epithelial Cells) were cultured as a monolayer in 90% DMEM supplemented with 10% heat inactivated FBS and penicillin-streptomycin (100 U/mL). Cells were cultured at 37° C. in a humidified incubator with 5% CO2 and growth medium was replaced every three days. HCE-S populations were grown to 80% confluence before passage to 20% using 0.25% Trypsin-EDTA. Prior to each experiment cell populations were estimated using a haemocytometer and trypan blue exclusion assay.
HCE-S barrier models for transcytosis assays were prepared using an adaptation of a previously described method (Reichl (2008)). HCE-S cells (5×10^4 cells/well) were seeded on transwell inserts (polycarbonate, 3 μm pore size, 1.13 cm^2) and maintained for 7 days refreshing the medium in the apical and basal chambers every second day. […] Prior to each experiment culture medium was replaced with phenol red free DMEM and barrier integrity measured via transepithelial resistance (TER). […]
FIGS. 21A-21D and FIGS. 22Ai-22Biii. Baseline TER was recorded before addition of […] 3-OH-C12 HSL in micelles (assuming 100% drug loading) or equivalent concentrations of micelles only (vehicle control) dissolved in phenol-red free culture medium for 2 h. After this time, TER was recorded before culture medium was replaced with fresh. […]

[4] = compared with 3-oxo-C12 HSL; cited from earlier work
[5] = tested on: immortalized human corneal epithelial cell line (HCE-S); test: Cell toxicity test in corneal epithelial cells; format: cell-based; conditions: compared with 3-oxo-C12 HSL and Benzalkonium chloride (BAK)
Experimental: as §1

[6] = tested on: HCE-S transwell barrier model; test: HCE-S transwell barrier: transcytosis of model drugs; format: cell-based, human; conditions: pre-treatment of HCE-S for 2 h with 300 μM
Experimental: HCE-S barrier models for transcytosis assays were prepared using an adaptation of a previously described method (Reichl (2008)). HCE-S cells (5×10^4 cells/well) were seeded on transwell inserts (polycarbonate, 3 μm pore size, 1.13 cm^2) and maintained for 7 days refreshing the medium in the apical and basal chambers every second day. After this time cells were cultured for a further 10 days at an apical air interface to encourage development of a multilayer barrier. Prior to each experiment culture medium was replaced with phenol red free DMEM and barrier integrity measured via transepithelial resistance (TER). […]
FIGS. 21A-21D and FIGS. 22Ai-22Biii. Baseline TER was recorded before addition of […] 3-OH-C12 HSL in micelles (assuming 100% drug loading) or equivalent concentrations of micelles only (vehicle control) dissolved in phenol-red free culture medium for 2 h. After this time, TER was recorded before culture medium was replaced with fresh. To the apical chamber, a model drug molecule (FITC-dextran or Avastin) was added and the concentration of this agent in the basolateral chamber was measured either by monitoring FITC fluorescence (FITC-dextran) versus a standard curve of known concentrations or using a commercially available Avastin sandwich ELISA kit as previously described (Davis et al. (2014)). […]

Compound: COc1cc(/C=C/C(=O)CC(=O)/C=C/c2ccc(O)c(OC)c2)ccc1O [FC]
RGC density / RGC loss (neuroprotective effect) [1]: did not have this effect; also recorded: no significant protective effect; also recorded: not FC treatment, significantly reduced RGC loss

Compound: C[C@@H]1C[C@H]2[C@@H]3CCC4=CC(=O)C=C[C@]4(C)[C@@]3(F)[C@@H](O)C[C@]2(C)[C@@]1(O)C(=O)CO [dexamethasone]
entry into the retina by systemic absorption route [2]: 40% | entry into the retina via topical penetration [2]: 60%

Compound: Benzalkonium chloride [BAK]
ocular irritation [3]: potent ocular irritation

solubility in distilled water (Aqueous solubility; 2 mg/mL curcumin): very poorly soluble
Compound: COc1cc(C=CC(=O)CC(=O)C=Cc2ccc(O)c(OC)c2)ccc1O [curcumin, 1,7-bis-(4-hydroxy-3-methoxyphenyl)-1,6-heptadiene-3,5-dione]

Compound: CCCCCCCCCC(O)CC(=O)NC1CCOC1=O (centres unmarked) [3-OH-C12 HSL, 3-hydroxydodecanoyl homoserine lactone]
disruption of tight junctions (TER, percentage of control) (HCE-S tight junctions): reversible disruption of Tight junctions | resistance to hydrolysis [4]: higher resistance to hydrolysis | water solubility (Aqueous solubility): low water solubility | cell toxicity (tolerability) [5]: better tolerated | transcytosis of 40 kDa FITC Dextran [6]: significantly enhanced | transcytosis of 149 kDa Avastin [6]: significantly enhanced
